The test system of the experiment is Mice that over-expressed human Cu,Zn superoxide dismutase-1 mutant G93A. Briefly: Survival of ALS model mice treated by oral gavage. It counts as in vivo. The note with it: G93A SOD1 mice; single-agent control treatment; untreated mice 125 days. The procedure: Compound 1 was dissolved in a PEG solvent (30% PEG 400, 5% EtOH, 5% DMSO, 1 mg/ml). The solution was mixed with Coenzyme Q10 in liposome (5 mg/ml, NuNaturals).
Mice that over-expressed human Cu,Zn superoxide dismutase-1 mutant G93A to develop a delayed and progressive motor neuron disease similar to human amyotrophic lateral sclerosis (ALS) were used in this assay.
The mixture of Compound 1 and Coenzyme Q10 were administered by gavage (oral) once a day (final dosage: 10 mg/kg of Compound 1 and 50 mg/kg of Coenzyme Q10) to 5 mice. The average survival time for the mice was 156 days.
As control, mice were subject to Compound 1 treatment, Coenzyme Q10 treatment, or no Compound 1 or Coenzyme Q10 treatment. The average survival time was 138 days for Compound 1-treated mice, 129 days for Coenzyme Q10 treatment mice, and 125 days for no Compound 1 or Coenzyme Q10-treated mice.

For `COC1=C(OC)C(=O)C(C/C=C(\C)CC/C=C(\C)CC/C=C(\C)CC/C=C(\C)CC/C=C(\C)CC/C=C(\C)CC/C=C(\C)CC/C=C(\C)CC/C=C(\C)CCC=C(C)C)=C(C)C1=O` [Coenzyme Q10], the average survival time came to 129 days.

Molecule `O=C(/C=C/c1ccc(O)c(O)c1)OCCc1ccccc1` [Compound 1, caffeic acid phenethyl ester] gave an average survival time of 138 days.

These data come from patent US9040579B2, “Combination therapy using coenzyme Q10 and a caffeic acid-derived ester” (priority 2010, dated 2015).
